{"source": "patent US9506068B2", "about": "“Pain treatment using ERK2 inhibitors” (Cornell University, priority 2008, dated 2016)", "key": {"[1]": {"test_system": "ERK1", "assay": "Western blot of transfected HEK293 cells: ERK1", "format": "cell-based, human", "source_text": "Separate cultures of an immortalized cell line of human embryonic kidney cells (HEK293) were transfected with three active siRNAs directed against human ERK2. […] The sequences of the three human ERK2 siRNAs (#1, #2, and #3) and the control mismatch siRNA are shown below. The siRNAs were expressed from the rAAV vector. Thus, to generate the siRNA #1, the DNA sequence of the sense strand […] NO:777) was linked to a spacer derived from an miRNA […] ID NO:766) at the 3' end, which was then linked to the corresponding antisense sequence […] NO:778)). Thus, the non-template strand sequence used in the expression cassette for the […] NO:777) siRNA will have the following sequence (SEQ ID NO:779)): [NT] This sequence was placed downstream of an RNA polymerase III (RNA pol III) promoter in the rAAV vector. The vector also contained 6 consecutive dTs in the non-template strand following the SEQ ID NO:779 sequence to stop the transcription."}, "[2]": {"test_system": "fusion mRNA of the ERK2 and the humanized Renilla luciferase (hRluc) gene", "assay": "psiCHECK Dual Luciferase Reporter Assay", "format": "cell-based, mouse", "conditions": "HEK 293 cells cotransfected with psiCHECK plasmid and rAAV plasmid; normalized to 100% of rAAV plasmid lacking shRNA (GFP); n=4", "source_text": "FIGS. 1A-J illustrate expression of green fluorescent protein (GFP) and the knockdown of ERK2 mRNA in the mouse spinal cord dorsal horn (SCDH) at 3 weeks after the intraparenchymal injection of a neurotropic recombinant adeno-associated virus (rAAV) vector expressing ERK2 siRNA. […] Thus, the expression of GFP was not influenced by co-expression of the ERK2 siRNAs. […] Scale bar, 500 μm. In FIG. 1I, ERK2 mRNA expression was quantified from in situ images and plotted in the bar graph as the ratio of the integrated optical density of in situ labeling in the ipsilateral SCDH to that in the contralateral SCDH. Data are the mean±SEM (n=3). […] There was no significant difference in the ratio among the three active siRNA vectors. […] HEK 293 cells were cotransfected with the psiCHECK plasmid (which contains the ERK2-Renilla luciferase fusion gene and the firefly luciferase gene) and with a rAAV plasmid expressing a candidate ERK2 shRNA sequence. rAAV plasmids that yield active siRNAs reduce the expression of Renilla luciferase relative to firefly luciferase, leading to a reduction of the activity ratio. The assay results are the mean±SEM (n=4). The Renilla/firefly signal was normalized to a value of 100% from the results of a concurrent assay containing psiCHECK and a rAAV plasmid that lacked coding for a shRNA sequence (GFP). […]"}, "[3]": {"test_system": "C57BL/6 mice", "assay": "Acute mechanical stimulus threshold (von Frey)", "format": "in vivo, mouse", "conditions": "before vs. at least 3 weeks after vector administration, no CFA", "method": "Mechanical stimulus threshold to a non-noxious mechanical stimulus was determined by paw withdrawal to the application of a series of calibrated von Frey filaments to the surface of the hind paws. The animals were placed in a Plexiglas cage with mesh flooring suspended above the researcher and left to acclimate for 30 min. von Frey filaments were applied perpendicularly against the mid-plantar surface of the foot. The “up-down” method of Dixon (Chaplan et al., 1994) was used to determine the value at which paw withdrawal occurred 50% of the time, interpreted as the mechanical threshold."}, "[4]": {"test_system": "ERK1", "assay": "Western blot of spinal cord dorsal horn: ERK1 and pERK1", "format": "in vivo, mouse", "conditions": "compared to animals that did not receive intraparenchymal injection of a vector", "method": "(§1) The viral vectors, ERK2-5, 2-7, 2-8 and MM were micro-injected into the spinal cord dorsal horn (SCDH) as described by South et al. (South et al., 2003). The mice were anesthetized with ketamine/xylazine. A laminectomy was performed to remove part of the dorsal L2 and L3 spinous process and the lumbar area of spinal cord was exposed for intraparenchymal injection (IPI). Three unilateral injections of 1 μl (1-3×10^9 viral particles/μl) were administered 0.5-0.7 mm apart, at a depth of 0.3 mm from the dorsal border and 0.5 mm from the midline, using a glass pipette with a 40-μm-diameter tip attached to a 5 μl Hamilton syringe. […]\n(§2) Animals were deeply anesthetized by isoflurane, decapitated and the lumbar spinal cord dorsal horn at the level of L4-L6 were rapidly dissected. […] The protein level of each sample was measured by the BioRad DC assay. […]\n(§3) Membranes were incubated with rabbit anti-pERK1/2 antibody (1:1000; 07-362; Cell Signaling Technology, Inc.) in blocking solution overnight at 4° C., washed in TBS with 0.1% Tween-20 (TBST), then incubated with HRP-conjugated anti-rabbit IgG (1:1000, Pierce Biotechnology, Inc., Rockford, Ill.) in blocking solution for 1 hr. […] Ratios of intensity of pERK1/2 or ERK1/2 to β-actin were calculated, normalized to the control samples and subject to statistical analysis. […]"}, "[5]": {"test_system": "ERK2 mRNA", "assay": "Non-radioactive in situ hybridization of ERK2 mRNA in spinal cord dorsal horn after intraparenchymal vector injection", "format": "in vivo, mouse", "conditions": "3 weeks after intraparenchymal injection; ipsilateral vs contralateral; listed as MM", "method": "as §1, with “syringe. The syringe was mounted on a microinjector (David Kopf Instruments, Tujunga, Calif.) attached to a stereotaxic unit (David Kopf Instruments). After the injection, the overlying muscles were closed with 5-0 chromic gut and the skins were closed with wound clips.” for “syringe.”\nERK2 mRNA expression in the SCDH was detected by non-radioactive in situ hybridization as described by (Garraway et al., 2007). […]\n(§4) Fluorescent IHC images were captured by a Zeiss LSM 510 laser scanning confocal microscope. […] Quantitative analysis was performed by a blinded observer using Metamorph software (Universal Imaging, Downingtown, Pa.) as described previously (Garraway et al., 2007). […]"}, "[6]": {"test_system": "spinal cord dorsal horn (SCDH)", "conditions": "mouse, in vivo", "quoted_text": "Mice were anesthetized with pentobarbital and then perfused transcardially with 4% paraformaldehyde (PFA) in phosphate buffered saline (PBS) with 1 mM NaF. Fifty mL of fixative was perfused over 5 min by using a peristaltic pump. The spinal cord was dissected and placed in 4% PFA for 1 hr before being transferred to 30% sucrose for cryoprotection for 72 hr. Lumbar spinal cord cryosections of 20-μm thick were obtained from a cryostat (Leica, Bannockburn, Ill.) for IHC and in situ hybridization.\nFor IHC, the spinal cord sections were incubated in blocking solution (3% normal goat serum, 0.1% Triton X-100 in Tris buffered saline) for 30 min. After washing in Tris buffered saline (TBS), sections were incubated with one or two of the following primary antibodies: rabbit anti-GFP (1:1000; Invitrogen-Molecular Probes Inc, Eugene, Oreg.), rabbit anti-phospho-ERK1/2 (1:1000; Cell Signaling Technology, Inc., Danvers, Mass.), mouse anti-NeuN (1:400; Millipore-Chemicon, Bedford, Mass.), rabbit anti-c-fos (1:2000, Santa Cruz Biotechnology, Santa Cruz, Calif.), rabbit anti-Dynorphin A(1:2000, Bachem, San Carlos, Calif.), mouse anti-GFAP (1:2000; Millipore-Chemicon) and rat anti-OX42 (1:1000, BD Biosciences, San Diego, Calif.) overnight in blocking solution at 4° C. […]"}, "[7]": {"test_system": "ERK2", "assay": "Western blot of spinal cord dorsal horn: ERK2 and pERK2", "format": "in vivo, mouse", "conditions": "compared to animals that did not receive intraparenchymal injection of a vector", "method": "as §1, §2, §3"}, "[8]": {"test_system": "C57BL/6 mice", "assay": "Motor function tests (surface righting, placing/stepping, grasping/climbing)", "format": "in vivo, mouse", "conditions": "after intraparenchymal injection of vector", "method": "All behavioral testing was conducted in groups of 10 mice per treatment by a blinded observer. Motor function tests were performed before mechanical stimulus threshold or thermal paw withdrawal threshold were measured (Garraway et al., 2007). No deficits in reflexes for surface righting, placing/stepping and grasping/climbing were found in animals treated with either the control rAAV vector or rAAV viral vectors."}, "[9]": {"test_system": "C57BL/6 mice", "assay": "Acute thermal paw withdrawal threshold", "format": "in vivo, mouse", "conditions": "before vs. at least 3 weeks after vector administration, no CFA", "method": "Thermal paw withdrawal threshold was assessed using a thermal nociceptive stimulus apparatus (Hargreaves et al., 1988). Prior to the test, the animals were allowed to acclimate for 30 min to the test chamber on a pre-heated glass plate maintained at 30° C. A radiant thermal stimulus (5.10 amps) was applied to the mid-plantar surface of the hind paw through the glass plate. The latency, in seconds, for the withdrawal of the paw from the heat source was determined automatically. If no response was elicited, the heat source was automatically shut off at 20 sec to prevent tissue injury. A minimum break of 5 min was allowed between each trial. Three to six trials were performed for each paw."}, "[10]": {"test_system": "spinal cord dorsal horn (SCDH)", "assay": "GFP immunolabeling after rAAV vector injection (extent and cell type of transduction)", "format": "in vivo, mouse", "conditions": "confocal fluorescent immunohistochemistry; NeuN, GFAP, OX42 markers", "method": "The viral vectors, ERK2-5, 2-7, 2-8 and MM were micro-injected into the spinal cord dorsal horn (SCDH) as described by South et al. (South et al., 2003). The mice were anesthetized with ketamine/xylazine. A laminectomy was performed to remove part of the dorsal L2 and L3 spinous process and the lumbar area of spinal cord was exposed for intraparenchymal injection (IPI). Three unilateral injections of 1 μl (1-3×10^9 viral particles/μl) were administered 0.5-0.7 mm apart, at a depth of 0.3 mm from the dorsal border and 0.5 mm from the midline, using a glass pipette with a 40-μm-diameter tip attached to a 5 μl Hamilton syringe. The syringe was mounted on a microinjector (David Kopf Instruments, Tujunga, Calif.) attached to a stereotaxic unit (David Kopf Instruments). After the injection, the overlying muscles were closed with 5-0 chromic gut and the skins were closed with wound clips. Animals were allowed to recover for three weeks before undergoing behavioral tests, or sacrificed for histological and Western blot analysis.\nas §4"}}, "note": "Entries after “also recorded” stand apart in the source; their conditions may differ."}
{"substance": "siRNA #3: human ERK2 siRNA (357-375) GUGCUCUGCUUAUGAUAAUUU, expressed from the rAAV vector", "values": [{"measurement": "ERK1 expression", "setting": "[1]", "result": "without significantly changing"}]}
{"substance": "mm: inactive control mismatch siRNA CCUCGUCAUAAUACUGGGUUU used in HEK293 cells (chemistry not given here)", "values": [{"measurement": "Renilla/firefly luciferase activity ratio", "setting": "[2]", "result": "ineffective"}, {"measurement": "mechanical withdrawal threshold", "setting": "[3]", "result": "No change"}, {"measurement": "expression or phosphorylation of ERK1", "setting": "[4]", "result": "did not have any effect"}, {"measurement": "ERK2 mRNA level in the ipsilateral SCDH (in situ hybridization)", "setting": "[5]", "result": "did not alter; also recorded: no change"}, {"measurement": "gliosis in the spinal cord dorsal horn", "setting": "[6]", "result": "no evidence of gliosis"}, {"measurement": "neuronal cell loss", "setting": "[6]", "result": "no evidence of neuronal cell loss"}, {"measurement": "expression or phosphorylation of ERK2", "setting": "[7]", "result": "did not have any effect"}, {"measurement": "animals with signs of motor deficits", "setting": "[8]", "result": "None"}, {"measurement": "heat withdrawal latency", "setting": "[9]", "result": "No change"}, {"measurement": "cellular localization of GFP immunolabeling", "setting": "[10]", "result": "colocalized with NeuN"}]}
{"substance": "siRNA #2: human ERK2 siRNA (884-902) GCUGCAUUCUGGCAGAAAUUU, expressed from the rAAV vector", "values": [{"measurement": "ERK1 expression", "setting": "[1]", "result": "without significantly changing"}]}
{"substance": "siRNA #1: human ERK2 siRNA (1833-1851) GCAGGAGCUUGUGGAAAUAUU, expressed from the rAAV vector", "values": [{"measurement": "ERK1 expression", "setting": "[1]", "result": "without significantly changing"}]}
